From patent US20110054033A1, “METHODS OF USING ABSCISIC ACID FOR AMELIORATING HYPERTENSION AND VASCULAR INFLAMMATION” (Virginia Tech Intellectual Properties, Inc., priority 2009, published 2011)

Tests used:
[1] = tested on: ApoE-deficient mice; assay: Histology analyses of the aorta (areas, thickness, lesion severity); format: in vivo
Description: FIG. 4 are photos and graphs showing aortas collected on day 84 of dietary intervention. Representative photomicrographs (100×) of aortic root specimens from (A) control and (B) ABA-fed mice. (C) Analysis of lumenal areas and (D) tunica media areas were performed with aortic cross-sections using Image Pro Plus software. (E) Aortic thickness was analyzed as a ratio of the intima to the media. Gene expression in the aorta of (F) endothelial nitric oxide synthase (eNOS) and (G) 15-lipoxygenase (15-LOX) were measured as a ratio to the house-keeping gene β-actin. Data were analyzed as a completely randomized design.
FIG. 5 are photos and graphs showing histological examination of aortic lesions. ApoE −/− mice were fed high fat diets created with or without abscisic acid (ABA, 100 mg/kg diet). After 84 days aortas were excised and lesions were analyzed histologically according to methods described by van Vlijmen et al[13]. Representative photomicrographs (100×) of a (A) mild and (B) severe lesion are depicted. (C) The total number of mild (categories 1-3) and severe (categories 4-5) lesions from control and ABA-fed mice are shown. (D) Lesional areas, as a percent of total lumen area, for control and ABA-fed mice were calculated from histological sections with Image Pro Plus software. Data are represented as mean±standard error.
The aortic root sections used for histological analyses were perfusion-fixed with paraformaldehyde. Samples of aortas were cut transversally, stained with hematoxylin and eosin, and analyzed histologically. Areas for the lumen, tunica media, and aortic lesions and the thicknesses of the tunica intima and media were assessed using Image Pro Plus 6.1 software (Media Cybernetics, Bethesda, Md.). For thickness analyses, eight different measurements from the intima and media were taken using previously described methods (Hazell et al., Free Radic. Biol. Med. 31:1254-62, 2001). For semiquantitative assessment of lesion severity, methods described by van Vlijmen et al were used (van Vlijmen et al., J. Clin. Invest. 93:1403-10, 1994). Briefly, lesions were classified into five categories (1) early fatty streak: per section up to 10 foam cells present in the intima, (2) regular fatty streak: more than 10 cells present in the intima, (3) mild plaque: extension of foam cells into the media and mild fibrosis of the media without significant loss in architecture, (4) moderate plaque: foam cells in media, fibrosis, cholesterol clefts, mineralization, and/or necrosis of the media, (5) severe plaque: as 4 but more extensive and deeper in the media. Scoring classifications were applied to 15 lesions from control and ABA-fed mice. Lesions falling in categories 1-3 were classified as mild and 4-5 as severe.

[2] = tested on: vascular cell adhesion molecule 1 (VCAM-1); assay: Aortic gene expression by real-time RT-PCR: VCAM-1; format: in vivo, mice; settings: P=0.07
Description: FIG. 6 are graphs showing that ABA decreases immune cell infiltration in aortas of ApoE−/− mice and reduces pro-inflammatory gene expression. ApoE −/− mice were fed high fat diets created with or without 100 mg/kg diet racemic abscisic acid (ABA). (A) Infiltration of F4/80^+CD11b^+ macrophages and CD4^+ T-cells into the aorta were assessed with flow cytometry. Gene expression in the aorta of pro-inflammatory markers (B) vascular cell adhesion molecule 1 (VCAM-1), (C) monocyte chemoattractant protein 1 (MCP-1), (D) E-selectin, (F) peroxisome proliferator-activated receptor γ (PPAR γ), and (G) CD36 were measured as a ratio to the housekeeping gene β-actin. (H) MCP-1 protein concentrations (pg/mL) were measured by ELISA. Data were analyzed as a completely randomized design.
Total RNA was isolated from aortas using the RNA isolation Minikit (Qiagen) according to the manufacturer's instructions. […] Each gene amplicon was purified with the MiniElute PCR Purification Kit (Qiagen) and quantitated on an agarose gel by using a DNA mass ladder (Promega). […]
Complementary DNA (cDNA) concentrations for genes of interest were examined by real-time quantitative PCR using an iCycler IQ System and the iQ SYBR green supermix (Bio-Rad). […] Results are presented as a starting quantity of target cDNA (picograms) per microgram of total RNA. […]

CC1=CC(=O)CC(C)(C)C1(O)/C=C/C(C)=C\C(=O)O (racemic) [ABA, abscisic acid] was tested, and the “Lesion area as a percent of total lumenal area vs control” value ([1]; day 84) was “significantly decreased”, the “Aortic luminal area vs control” value ([1]; day 84, aortic cross-sections) was “no significant differences” and the “Aortic tunica media area vs control” value ([1]; day 84, aortic cross-sections) was “no significant differences”. For the same molecule, the “Intima to media ratio vs control” value ([1]; day 84, aortic root) was “significantly lower”, the “Number of mild lesions (categories 1-3)” value ([1]; of 15 lesions scored, day 84) was 10 and the “Number of severe lesions (categories 4-5)” value ([1]; of 15 lesions scored, day 84, control-fed mice 8 of 15) was 5. For the same molecule, the “VCAM-1 mRNA expression in the aortic roots vs control” value [2] was “reduced, though not to statistical significance”.
